Legend:
H5N1 virions = assay type: binding, Avian influenza A virus (H5N1); details: Averionol to Istrocyanidin bound
Dengue-2 virus particles = assay type: binding; details: Den-2; Averionol to Istrocyanidin bound

COc1cc(OC)c2c(=O)c(O)c(-c3ccc(OC)c(OC)c3)oc2c1 [Averionol]
Aver:Istro Ratio (H5N1 virions): 14.0
Aver:Istro Ratio (Dengue-2 virus particles): 3.7

— patent US20090149530A1 (priority 2007, published 2009)
